Here are results for 4 compounds from US6808909B2, “Thermostable phytase with 2.1 Å . . . crystal structure” (Korea Research Institute of Bioscience and Biotechnology, priority 2000, dated 2004).

For this assay, the target named is T1, phytase derived from B. amyloliquefaciens DS-11 (Bacillus sp., UniProt O66037).
T1 construct: made in house; host or cells: Bacillus subtilis DB104/pJPK
Description: Activity of the phytase on phytate and myo-inositol monophosphate substrates. The class given is biochemical. The settings on record: 2 mM substrate, 37° C. for 15 min, 20 mM Tris/HCl (pH7.0) buffer; relative to phytate = 100. The procedure: The activities of the phytase derived from B. amyloliquefaciens DS11 were measured on its 2 mM substrates of myo-inositol, hexaphosphate, mio-inositol 1-monophosphate, mio-inositol 2-monophosphate, myo-inositol 4-monophosphate, after incubating at 37° C. for 15 min in a 20 mM Tris/HCl (pH7.0) buffer.

T1 sequence (O66037 31-383): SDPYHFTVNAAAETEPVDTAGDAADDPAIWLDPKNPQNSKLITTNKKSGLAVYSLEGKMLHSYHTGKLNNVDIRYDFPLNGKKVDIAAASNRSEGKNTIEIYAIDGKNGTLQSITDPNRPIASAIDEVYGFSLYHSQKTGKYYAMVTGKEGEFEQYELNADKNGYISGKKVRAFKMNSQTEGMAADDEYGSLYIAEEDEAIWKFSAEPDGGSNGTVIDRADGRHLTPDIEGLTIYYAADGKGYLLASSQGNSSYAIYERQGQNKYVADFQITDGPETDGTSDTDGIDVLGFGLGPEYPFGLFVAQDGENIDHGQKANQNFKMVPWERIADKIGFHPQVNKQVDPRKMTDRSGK

`O=P(O)(O)OC1[C@@H](O)[C@@H](O)C(O)[C@H](O)[C@H]1O` (stereo partly shown) [4′-monophosphoinositol, myo-inositol 4-monophosphate]: the “Relative Enzyme Activity (%)” value amounted to 40%.

As to `O=P(O)(O)O[C@H]1[C@H](OP(=O)(O)O)[C@@H](OP(=O)(O)O)[C@H](OP(=O)(O)O)[C@@H](OP(=O)(O)O)[C@H]1OP(=O)(O)O` [Phytate, myo-inositol, hexaphosphate], the “Relative Enzyme Activity (%)” value amounted to 100%.

For `O=P(O)(O)OC1[C@H](O)[C@H](O)C(O)[C@H](O)[C@H]1O` (stereo partly shown) [1′-monophosphoinositol, mio-inositol 1-monophosphate], the “Relative Enzyme Activity (%)” value is on record as 27%.

`O=P(O)(O)OC1[C@@H](O)[C@H](O)C(O)[C@H](O)[C@H]1O` (stereo partly shown) [2′-monophosphoinositol, mio-inositol 2-monophosphate]: the “Relative Enzyme Activity (%)” value is reported as 28%.
